This is an account of results in patent US7186534B1 (The Trustees of Columbia University in the City of New York, priority 1997, dated 2007).

Where two headings read alike, the source gives them in different places. Some results are limits rather than exact numbers.

Data set [1] in a line: Isomerization of retinoic acids in the human 9-cis retinol dehydrogenase assay. It is filed as physicochemical. The note with it: for 9-cis isomer present at end of assay / 13-cis isomer present at end of assay / all-trans isomer present at end of assay: 37° C., 15 minutes; for final concentration of 13-cis-retinoic acid formed by isomerization: 10 μM retinoic acid, end of the 15 minute assay. Here is the method: Inhibition Studies of 9cRDH Activity. For the inhibition experiments, each potential inhibitor tested was added to the recombinant 9cRDH in 5 μl of ethanol in the presence of 2 mM NAD^+, 10 mM Hepes, pH 8.0, containing 150 mM KCl, 1 mM EDTA, and 50 μg phosphotidyl choline (assay incubation mixture lacking the retinoid substrate). This mixture was allowed to sit on ice for 5 minutes prior to adding substrate. Upon addition of 10 μM 9-cis-retinol (final concentration), the mixture was incubated for 15 minutes at […] with agitation and extracted as described above for the standard enzyme assay. HPLC Procedures. Stereoisomers of both retinol and retinaldehyde were separated on a 4.6×15-mm Supelco (Belefonte, Pa.) LC-SI Supelcosil™ column using hexane:ethyl acetate:butanol (96.9:3:0.1 v/v) as the mobile phase flowing at 0.8 ml/min. A silica guard column (Supelco) preceded the running column. Retinols and retinaldehydes were detected using a Waters 996 Photodiode array detector at absorbances of 325 and 365 nm, respectively. Retention times for all-trans-, 9-cis-, 11-cis-, and 13-cis-retinols and corresponding retinaldehydes were established using the purified compounds obtained as described above. Quantities of each retinol and retinaldehyde isomer present in extracts were determined by comparisons of the integrated areas under the HPLC peaks with a standard curve constructed relating integrated peak area with known masses of each retinoid isomer. The concentration of each retinoid isomer were determined by UV-visible spectrophotometry using published extinction coefficients for each retinol, retinaldehyde or retinoic acid isomer (25).
To test this possibility, the degree of isomerization of retinoic acid which occurs under the assay conditions was measured.

Data set [2] addresses rat liver and human prostate 17β-hydroxysteroid dehydrogenase (identical to retinol dehydrogenase, type I). Particulars: cited from earlier work.
Data set [3] addresses T1, mouse 9cRDH (Mus musculus, UniProt O55240).
T1 sequence (O55240 1-318): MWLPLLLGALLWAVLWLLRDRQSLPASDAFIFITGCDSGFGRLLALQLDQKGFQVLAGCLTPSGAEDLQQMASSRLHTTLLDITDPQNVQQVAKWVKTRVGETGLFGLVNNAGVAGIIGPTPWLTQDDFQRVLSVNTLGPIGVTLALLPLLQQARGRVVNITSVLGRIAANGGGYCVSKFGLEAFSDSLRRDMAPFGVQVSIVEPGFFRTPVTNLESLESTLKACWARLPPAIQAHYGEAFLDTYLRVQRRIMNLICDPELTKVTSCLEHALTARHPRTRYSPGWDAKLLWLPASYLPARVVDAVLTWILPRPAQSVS
Kind of data set: Inhibition of recombinant mouse 9cRDH activity (9-cis-retinol oxidation, CHO cell homogenate, HPLC). It is filed as biochemical. The note with it: for inhibition of mouse 9cRDH activity (in words): 10 μM 9-cis-retinol.

Data set [4] deals with T2, human 9-cis retinol dehydrogenase (9cRDH) (Homo sapiens, UniProt Q92781).
T2 sequence (Q92781 1-318): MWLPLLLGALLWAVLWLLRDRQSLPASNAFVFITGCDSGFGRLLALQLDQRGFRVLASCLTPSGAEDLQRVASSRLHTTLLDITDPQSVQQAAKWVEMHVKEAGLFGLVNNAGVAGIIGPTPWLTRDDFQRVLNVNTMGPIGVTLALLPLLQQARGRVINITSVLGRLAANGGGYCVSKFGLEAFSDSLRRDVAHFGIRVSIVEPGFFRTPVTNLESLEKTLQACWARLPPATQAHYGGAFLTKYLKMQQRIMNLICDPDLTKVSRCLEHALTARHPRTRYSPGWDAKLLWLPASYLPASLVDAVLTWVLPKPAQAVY
Kind of data set: Inhibition of recombinant human 9cRDH activity (9-cis-retinol oxidation, CHO cell homogenate, HPLC). It is filed as biochemical.

The conditions of data set [5]: animals and humans receiving 13-cis-retinoic acid pharmacologically; cited from earlier work.
The test system of data set [6] is visual cycle. The note with it: administration to frogs; cited from earlier work.
Data set [7] has as its target human alcohol dehydrogenase type IV (Homo sapiens, UniProt P40394). The note with it: cited from earlier work.
Data set [8] concerns the target T3, human 9cRDH (Homo sapiens, UniProt Q92781).
T3 sequence (Q92781 1-318): T2 sequence (Q92781 1-318)
Kind of data set: Hydroxysteroid oxidation/reduction by human 9cRDH (TLC). Type of data set: biochemical. The note with it: 37° C., 1.5 h; TLC detection limit approximately 3 pmol/min/mg protein. The procedure: (§1) To investigate whether human or mouse 9cRDH will catalyze oxidations or reductions of 3α-hydroxy-, 11β-hydroxy- or 17β-hydroxysteroids, these steroids were incubated at 37° C. for 1.5 h in the assay media described above for assessing oxidation/reduction of 9-cis-retinol/9-cis-retinaldehyde. The Hepes NAD^+-containing assay buffer described above was employed to assess hydroxysteroid oxidation and to assess hydroxysteroid reduction the acetate buffer containing NADH (or NADPH) assay buffer (see above) was employed. Immediately following incubation, the steroids were extracted as described above for retinoids. The final hexane extract was evaporated to near dryness and this was spotted onto a silica high performance TLC plate (Whatman Inc., Clifton, N.J.) and developed in hexane/diethyl ether/acetic acid (70:30:1, v/v) or ethyl acetate/chloroform (25:75, v/v). Steroids were visualized by charring after treatment of the TLC plates with an areosol of 10% (v/v) H2SO4 in methanol.
(§2) Biswas and Russell (32) have reported that rat liver all-trans-retinol dehydrogenase type I also uses several 3α-hydroxy- and 17β-hydroxysteroids as substrates. Chai et al. (18) also reported that hydroxysteroids are substrates for mouse liver cis-retinol dehydrogenase. Since human 9cRDH is approximately 50% identical to the rat liver enzymes and shares approximately 63% homology to mouse liver cis-retinol dehydrogenase, next investigated was whether these steroids might also be substrates for 9cRDH. To test this possibility it was determined whether human or mouse 9cRDH would catalyze oxidation of 5α-androstan-3α, 17β-diol, androsterone, testosterone or dihydrotestosterone to corresponding ketone products. Also investigated was whether human and/or mouse 9cRDH could catalyze reduction of the corresponding ketones. […] It is estimate, based on the lower limits for hydroxysteroid detection by TLC, that it would be possible to detect rates of hydroxysteroid oxidation as low as approximately 3 pmol/min/mg protein. This rate of hydroxysteroid oxidation is at least 2-orders of magnitude lower than Vmax values reported by Biswas and Russell (32) and Chai et al. (18) for oxidation of hydroxysteroids in their studies of enzymes that are able to oxidize both retinol and hydroxysteroids.

Data set [9] has as its target T1, mouse 9cRDH. As to the kind of experiment: Hydroxysteroid oxidation/reduction by mouse 9cRDH (TLC). It is filed as biochemical. Particulars: 37° C., 1.5 h; TLC detection limit approximately 3 pmol/min/mg protein. The procedure: as §1, §2
[10] abbreviates: 1 μM 13-cis Retinoic Acid at start.
Setting [11] is: 10 μM steroid, equimolar to substrate, forward (retinol oxidation) or reverse (retinaldehyde reduction) direction.

human alcohol dehydrogenase type IV, sequence (P40394 whole entry): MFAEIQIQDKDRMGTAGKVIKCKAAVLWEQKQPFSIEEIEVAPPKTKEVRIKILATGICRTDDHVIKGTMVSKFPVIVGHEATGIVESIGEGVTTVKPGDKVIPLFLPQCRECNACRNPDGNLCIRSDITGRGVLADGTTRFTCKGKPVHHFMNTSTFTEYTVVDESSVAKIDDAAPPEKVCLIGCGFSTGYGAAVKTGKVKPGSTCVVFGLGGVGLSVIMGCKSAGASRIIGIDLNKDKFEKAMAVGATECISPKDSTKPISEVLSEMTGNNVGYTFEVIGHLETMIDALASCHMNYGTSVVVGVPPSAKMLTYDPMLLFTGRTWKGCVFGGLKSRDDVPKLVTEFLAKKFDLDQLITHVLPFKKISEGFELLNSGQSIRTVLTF

Consider `CC1=C(/C=C/C(C)=C\C=C\C(C)=C\C(=O)O)C(C)(C)CCC1` [9-cis Retinoic Acid, 9-cis-retinoic acid], for which, in [1] (10 μM retinoic acid at start), the “9-cis isomer present at end of assay” value is listed as 94.7%, the “13-cis isomer present at end of assay” value was 1.1% and the “all-trans isomer present at end of assay” value came out at 4.2%. In addition, the “13-cis isomer present at end of assay” value in data set [1] (10 μM retinoic acid at start, listed as 9-cis-retinoic acid) was ~1.1%. Besides, the “final concentration of 13-cis-retinoic acid formed by isomerization” value in data set [1] is recorded as “approximately 0.1 μM”. In data set [2], the Ki (usually a measure of affinity in units of concentration, obtained from inhibition or displacement) is 400 nM. Also, the “inhibition of mouse 9cRDH activity (in words)” value in data set [3] was “very potent inhibitors”. Besides, the “times (fold) less potent than 13-cis retinoic acid as inhibitor of 9cRDH” value in data set [4] was 18. In addition, the “inhibition of human 9cRDH activity (in words)” value in data set [4] (10 μM 9-cis-retinol, listed as 9-cis retinoic acid) is listed as “potent inhibitors”. Moreover, the “inhibition of human 9cRDH activity (in words)” value in data set [4] (10 μM 9-cis-retinol, listed as 9-cis-retinoic acid) is given as “very potent inhibitors”. In addition, the “inhibition of 9cRDH activity” value in [4] (10 μM retinoic acid) turned out to be 81%.

Consider `CC1=C(/C=C/C(C)=C/C=C/C(C)=C\C(=O)O)C(C)(C)CCC1` [13-cis Retinoic Acid, 13-cis-retinoic acid], for which, in data set [5], the “concentrations reached in the blood and tissues” value is ≥ 10 µM. Also, in data set [1] (setting [10]), the “13-cis isomer present at end of assay” value stood at 98.4% and the “all-trans isomer present at end of assay” value amounted to 1.6%. For the same compound, the inhibition constant (Ki) in data set [2] is 4000 nM. In addition, the “block of the visual cycle in vivo (in words)” value in data set [6] is reported as “block the visual cycle”. In data set [3], the “concentration at which mouse 9cRDH is potently inhibited” value came out at 0.05 µM and the “inhibition of mouse 9cRDH activity (in words)” value is reported as “very potent inhibitors”. In data set [3] (substrate concentration 10 μM, read-out: Inhibitor concentration giving approximately 50% inhibition of m9cRDH activity), the IC50 was ~150 nM. Further, the “inhibition of purified human alcohol dehydrogenase type IV (in words)” value in [7] is reported as “in vitro inhibition”. The “concentration at which human 9cRDH is potently inhibited” value in [4] was determined as 0.05 µM. Besides, the “expected inhibition of h9cRDH activity” value in data set [4] (0.1 μM 13-cis-retinoic acid present for the full 15 minute incubation) is 40–50%. Further, in data set [4] (10 μM 9-cis-retinol, listed as 13-cis retinoic acid), the “inhibition of human 9cRDH activity (in words)” value is recorded as “potent inhibitors”. The “inhibition of human 9cRDH activity (in words)” value in data set [4] (10 μM 9-cis-retinol, listed as 13-cis-retinoic acid) is given as “very potent inhibitors”.

Consider `CC1=C(/C=C/C(C)=C/C=C/C(C)=C/C(=O)O)C(C)(C)CCC1` [all-trans Retinoic Acid, all-trans-retinoic acid], for which, in [1] (10 μM retinoic acid at start), the “9-cis isomer present at end of assay” value was found to be 0.4%, the “13-cis isomer present at end of assay” value was determined as 0.8% and the “all-trans isomer present at end of assay” value came out at 98.8%. In addition, in [1] (10 μM retinoic acid at start, listed as all-trans-retinoic acid), the “13-cis isomer present at end of assay” value is reported as “approximately 1%”. Also, in data set [1], the “final concentration of 13-cis-retinoic acid formed by isomerization” value was “approximately 0.1 μM”. Further, in data set [6], the “block of the visual cycle in vivo (in words)” value was “block the visual cycle”. Also, the “inhibition of mouse 9cRDH activity (in words)” value in data set [3] is reported as “very potent inhibitors”. For the same compound, the “times (fold) less potent than 13-cis retinoic acid as inhibitor of 9cRDH” value in data set [4] came out at 30. The IC50 in data set [4] (10 μM 9-cis-retinol, 15 min, 37° C., CHO cell homogenate, read-out: Estimated inhibitor concentration resulting in 50% inhibition of human 9-cis retinol dehydrogenase activity (ID50)) is 4600 nM. For the same compound, the “inhibition of human 9cRDH activity (in words)” value in data set [4] (10 μM 9-cis-retinol, listed as all-trans retinoic acid) is given as “potent inhibitors”. The “inhibition of human 9cRDH activity (in words)” value in data set [4] (10 μM 9-cis-retinol, listed as all-trans-retinoic acid) is given as “very potent inhibitors”. Moreover, in data set [4] (10 μM retinoic acid), the inhibition (usually the relative decrease from the control value, in per cent) at 10 µM was 66%.

Take `C[C@]12CC[C@@H](O)C[C@@H]1CC[C@@H]1[C@@H]2CC[C@]2(C)C(=O)CC[C@@H]12` [androsterone]: the “catalysis by human 9cRDH of hydroxysteroid oxidation to ketone products (or reduction of the corresponding ketones)” value in [8] is on record as “Neither human nor mouse 9cRDH were found to catalyze”. For the same compound, the “catalysis by mouse 9cRDH of hydroxysteroid oxidation to ketone products (or reduction of the corresponding ketones)” value in [9] was “Neither human nor mouse 9cRDH were found to catalyze”. Moreover, the “inhibition of mouse 9cRDH activity by hydroxysteroids” value in data set [3] is recorded as “none of these hydroxysteroids inhibited”. For the same compound, in data set [4], the “inhibition of human 9cRDH activity by hydroxysteroids” value is “none of these hydroxysteroids inhibited”.

For the compound `C[C@]12CC[C@H]3[C@@H](CCC4=CC(=O)CC[C@@]43C)[C@@H]1CC[C@@H]2O` [testosterone], the “catalysis by human 9cRDH of hydroxysteroid oxidation to ketone products (or reduction of the corresponding ketones)” value in data set [8] is “Neither human nor mouse 9cRDH were found to catalyze”. Further, the “catalysis by mouse 9cRDH of hydroxysteroid oxidation to ketone products (or reduction of the corresponding ketones)” value in [9] was “Neither human nor mouse 9cRDH were found to catalyze”. The “inhibition of mouse 9cRDH activity by hydroxysteroids” value in data set [3] (setting [11]) is given as “none of these hydroxysteroids inhibited”. The “inhibition of human 9cRDH activity by hydroxysteroids” value in [4] (setting [11]) was “none of these hydroxysteroids inhibited”.
